{"source": "patent US20200383983A1", "about": "“CGRP ANTAGONISTS FOR THE TREATMENT OF MEDICATION OVERUSE HEADACHE, POST-TRAUMATIC HEADACHE, POST-CONCUSSION SYNDROME AND VERTIGO” (Allergan Sales, LLC, priority 2019, published 2020)", "molecules": {"B1": {"name": "erenumab (antibody, chains of the INN, looked up, V domains shown)", "VH": "QVQLVESGGGVVQPGRSLRLSCAASGFTFSSFGMHWVRQAPGKGLEWVAVISFDGSIKYSVDSVKGRFTISRDNSKNTLFLQMNSLRAEDTAVYYCARDRLNYYDSSGYYHYKYYGMAVWGQGTTVTVSS", "VL": "QSVLTQPPSVSAAPGQKVTISCSGSSSNIGNNYVSWYQQLPGTAPKLLIYDNNKRPSGIPDRFSGSKSGTSTTLGITGLQTGDEADYYCGTWDSRLSAVVFGGGTKLTVL"}}, "key": {"[1]": {"conditions": "stated generally, small molecules compared with monoclonal antibodies; cited from earlier work"}, "[2]": {"assay": "Case scenario: patient with post-traumatic headache (PTH), subjective pain rating", "type": "in vivo, human", "conditions": "for pain rating at worst, subjective rating scale of zero (no pain) to 10 (worst pain): before treatment 10; for pain rating at best, subjective rating scale of zero (no pain) to 10 (worst pain): before treatment eight; for pain rating on average, subjective rating scale of zero (no pain) to 10 (worst pain): before treatment nine", "excerpt": "(§1) The following non-limiting examples provide those of ordinary skill in the art with possible case scenarios and specific methods to treat conditions within the scope of the present disclosure and are not intended to limit the scope of the disclosure.\nA person complains of right-sided frontal headaches. The patient stated the headaches began 3 months ago after accidentally being hit in the face at the right frontal, maxillary, and zygomatic bones with a heavy instrument. They deny any loss of consciousness at the time of the incident and describes the pain as a “constant achy” to “stabbing” pain primarily over the right eye and right zygomatic bone. They complain of intermittent blurred vision when the pain becomes “stabbing.” They also complain of intermittent tinnitus. On a subjective rating scale of zero (no pain) to 10 (worst pain), the patient rates their pain as eight at best, nine on average, and 10 at worst. Results from a radiographic scan of the skull, CT scan of the brain, and MRI scan of the brain and cervical spine are normal. Results from slit lamp and neurologic testing are also normal. The patient is diagnosed to have PTH. The patient can be treated with ubrogepant at a dose of 100 mg, once a day. The treatment with ubrogepant can reduce the pain experienced by the patient and the patient can rate their pain as five at best, six on average, and nine at worst.\nA person complains of right-sided frontal headaches. The patient stated the headaches began 3 months ago after accidentally being hit in the face at the right frontal, maxillary, and zygomatic bones with a heavy instrument. They deny any loss of consciousness at the time of the incident and describes the pain as a “constant achy” to “stabbing” pain primarily over the right eye and right zygomatic bone. They complain of intermittent blurred vision when the pain becomes “stabbing.” They also complain of intermittent tinnitus. On a subjective rating scale of zero (no pain) to 10 (worst pain), the patient rates their pain as eight at best, nine on average, and 10 at worst. Results from a radiographic scan of the skull, CT scan of the brain, and MRI scan of the brain and cervical spine are normal. Results from slit lamp and neurologic testing are also normal. The patient is diagnosed to have PTH. The patient can be treated with erenumab at a dose of 70 mg by subcutaneous administration. A month after the erenumab administration, the patient can rate their pain as five at best, six on average, and nine at worst."}, "[3]": {"assay": "Case scenario: patient with chronic migraine and medication overuse headache, weaning off Fiorinal", "type": "in vivo, human", "excerpt": "as §1\n[…] This responded well to Excedrin at that time. As they became older their headaches became more frequent and by the time they were in their late 20's they had headache on more than half the days of the month. Excedrin was no longer effective, and their primary care physician prescribed Fiorinal (aspirin, caffeine and barbiturate compound). […] […] Their primary care physician, on routine blood work noted: worsening renal and liver function tests. The patient reported depression and disability related to their headache disorder. They could not work or participate in family events. They were referred to a neurologist who specialized in headache disorders. They diagnosed them with episodic migraine without aura that had transformed to chronic migraine with associated medication overuse headache. They also diagnosed end organ damage with hepatic and renal damage secondary to analgesic overuse. They recommended a preventive treatment and that they taper off of Fiorinal. The patient started Topiramate as a migraine preventive and despite their best efforts they were unable to wean off of Fiorinal, due to breakthrough headache. They returned to the Neurologist and they prescribed Ubrogepant 50 mg daily for 10 days. […] They continued Topiramate treatment and used Ubrogepant 50 mg a day as needed for breakthrough headache. […] They were able to return to work and to participate in family events."}, "[4]": {"assay": "Case scenario: patient with migraine without aura and medication overuse headache (triptan overuse)", "type": "in vivo, human", "conditions": "50 mg once a day, patient averaging 25 doses of oral triptan per month", "excerpt": "as §1\nA person visits a headache clinic with almost daily migraine attacks. Their migraines have been ongoing since they were […]. […] Eventually, however, the migraine attacks became longer, lasting up to 3 or 4 days and forcing them to take 4 or 5 doses of triptan per attack. Currently, they are averaging 25 doses of oral triptan per month. They are diagnosed with migraine without aura and medication overuse headache. They are treated with ubrogepant at a dose of 50 mg, once a day."}, "[5]": {"conditions": "70 mg subcutaneous, a month after administration"}}}
{"molecule": "C[C@@H]1[C@H](c2c(F)ccc(F)c2F)C[C@H](NC(=O)c2cnc3c(c2)C[C@@]2(C3)C(=O)Nc3ncccc32)C(=O)N1CC(F)(F)F", "note": "[atogepant]", "values": [{"measurement": "half-life", "setting": "[1]", "result": "measured in hours"}]}
{"molecule": "N[C@@H]1c2cccnc2[C@H](OC(=O)N2CCC(n3c(=O)[nH]c4ncccc43)CC2)CC[C@H]1c1cccc(F)c1F", "note": "[rimegepant]", "values": [{"measurement": "half-life", "setting": "[1]", "result": "measured in hours"}]}
{"molecule": "C[C@@H]1[C@H](c2ccccc2)C[C@H](NC(=O)c2cnc3c(c2)C[C@@]2(C3)C(=O)Nc3ncccc32)C(=O)N1CC(F)(F)F", "note": "[ubrogepant]", "values": [{"measurement": "half-life", "setting": "[1]", "result": "measured in hours"}, {"measurement": "pain rating at worst, subjective rating scale of zero (no pain) to 10 (worst pain)", "setting": "[2]; 100 mg once a day", "result": "nine"}, {"measurement": "pain rating at best, subjective rating scale of zero (no pain) to 10 (worst pain)", "setting": "[2]; 100 mg once a day", "result": "five"}, {"measurement": "pain rating on average, subjective rating scale of zero (no pain) to 10 (worst pain)", "setting": "[2]; 100 mg once a day", "result": "six"}, {"measurement": "need of as-needed use for breakthrough headache", "setting": "[3]; 50 mg a day as needed, after 3 months", "result": "once or twice a month"}, {"measurement": "effect on migraine attacks and recurrence", "setting": "[3]; 50 mg a day as needed, continued Topiramate", "result": "effectively ended their migraine attacks and they had no recurrence requiring re-treatment"}, {"measurement": "need of as-needed use for breakthrough headache", "setting": "[3]; 50 mg a day as needed, first month after weaning off Fiorinal", "result": "twice a week"}, {"measurement": "weaning off the overused medication (Fiorinal)", "setting": "[3]; 50 mg daily for 10 days, with Topiramate as preventive", "result": "able to successfully wean off of Fiorinal"}, {"measurement": "intensity and frequency of migraine", "setting": "[4]", "result": "can reduce the intensity and frequency of migraine"}]}
{"molecule": "B1", "values": [{"measurement": "pain rating at worst, subjective rating scale of zero (no pain) to 10 (worst pain)", "setting": "[2]; [5]", "result": "nine"}, {"measurement": "pain rating at best, subjective rating scale of zero (no pain) to 10 (worst pain)", "setting": "[2]; [5]", "result": "five"}, {"measurement": "pain rating on average, subjective rating scale of zero (no pain) to 10 (worst pain)", "setting": "[2]; [5]", "result": "six"}]}
